Among the data in ChEMBL document CHEMBL1944613, “Cloning, characterization and sulfonamide inhibition studies of an α-carbonic anhydrase from the living fossil sponge Astrosclera willeyana” (Bioorg Med Chem, 2012) are Ki values, retold here.

In the experiment the target is T1, Astrosclerin-3 (Astrosclera willeyana, UniProt A6YCJ1).
T1 sequence (A6YCJ1 whole entry): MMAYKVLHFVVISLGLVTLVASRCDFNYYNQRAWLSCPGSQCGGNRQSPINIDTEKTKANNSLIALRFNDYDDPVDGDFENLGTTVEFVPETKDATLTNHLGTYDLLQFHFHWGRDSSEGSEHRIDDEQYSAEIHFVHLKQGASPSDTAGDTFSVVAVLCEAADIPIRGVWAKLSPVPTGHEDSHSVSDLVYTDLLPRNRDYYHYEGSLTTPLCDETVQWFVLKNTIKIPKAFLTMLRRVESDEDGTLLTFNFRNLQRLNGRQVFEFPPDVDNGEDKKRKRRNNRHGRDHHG
Description: Inhibition of GST-tagged astrosclera willeyana Astrosclerin-3 expressed in Escherichia coli after 15 mins preincubation by stopped flow CO2 hydration assay
For the compound `NNc1ccccc1S(N)(=O)=O`, the affinity, expressed as Ki, was 8.85 µM. In the case of `Nc1ccc(S(=O)(=O)Nc2nnc(S(N)(=O)=O)s2)cc1` it was 0.0039 µM. On to `Nc1c(Br)cc(S(N)(=O)=O)cc1Br`, for which the Ki (as a rule, a measure of affinity in units of concentration, obtained from inhibition or displacement) stood at 0.965 µM. Take `NS(=O)(=O)c1ccc(CCNC(=O)c2ccc(S(N)(=O)=O)cc2)cc1`: the inhibition constant (Ki) was found to be 0.034 µM.

`Nc1nccc(Nc2ccc(S(N)(=O)=O)cc2)n1` returned an inhibition constant (Ki) of 0.054 µM. In turn, `Cn1nc(S(N)(=O)=O)sc1=N` gave a Ki of 0.393 µM. Against the preceding compound, the Ki is about 7.3-fold higher. In the case of `Nc1c(I)cc(S(N)(=O)=O)cc1I` it was 0.879 µM.

Regarding `NS(=O)(=O)c1ccc(CCO)cc1`, the Ki was determined as 1.38 µM. In turn, `Nc1ccc(S(N)(=O)=O)cc1F` showed a Ki of 0.89 µM.

For `NS(=O)(=O)c1ccc(CO)cc1`, the inhibitory constant (Ki) worked out at 4.26 µM. This Ki lies about 4.8-fold higher than the previous one. In the case of `NCCc1ccc(S(N)(=O)=O)cc1` it was 0.715 µM; in that of `Nc1ccc(S(N)(=O)=O)cc1Cl`, 0.884 µM. The compound `Nc1ccc(S(=O)(=O)NCCc2ccc(S(N)(=O)=O)cc2)cc1` showed a Ki of 0.016 µM. For `Nc1c(F)cc(S(=O)(=O)Nc2nnc(S(N)(=O)=O)s2)cc1Cl` the value was 0.0028 µM; for `NNc1ccc(S(N)(=O)=O)cc1`, 6.08 µM. The compound `NS(=O)(=O)c1ccc(S(=O)(=O)Nc2cccc3c(Cl)c[nH]c23)cc1` came in with a Ki of 0.423 µM. `NS(=O)(=O)c1nnc(NS(=O)(=O)c2ccccc2)s1` [BENZOLAMIDE] returned an inhibition constant (Ki) of 0.032 µM. As for `CCN[C@H]1CN(CCCOC)S(=O)(=O)c2sc(S(N)(=O)=O)cc21` [BRINZOLAMIDE], the Ki was 0.278 µM. Take `NS(=O)(=O)c1ccc(C(=O)O)cc1` [CARZENIDE]: the affinity, expressed as Ki, was 1.21 µM.

Compound `Cc1ccc(-c2cc(C(F)(F)F)nn2-c2ccc(S(N)(=O)=O)cc2)cc1` [CELECOXIB] came in with an inhibition constant (Ki) of 0.732 µM. For the compound `NCc1ccc(S(N)(=O)=O)cc1` [MAFENIDE], the inhibitory constant (Ki) was determined as 0.973 µM. In the case of `Cc1ccc(S(N)(=O)=O)cc1` [P-TOLUENESULFONAMIDE] it was 0.675 µM.

`O=C1NS(=O)(=O)c2ccccc21` [SACCHARIN] registered a Ki of 0.751 µM. `Nc1ccc(S(N)(=O)=O)cc1` [SULFANILAMIDE]: affinity was put at a Ki of 7.7 µM.

Take `CC1(C)O[C@@H]2[C@@H](CO[C@@]3(COS(N)(=O)=O)OC(C)(C)O[C@@H]23)O1` [TOPIRAMATE]: the Ki is 0.038 µM.
